PubChem BioAssay (NCI)
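Following 48 hours of exposure in 96-well plates, responses at five concentrations were used to interpolate endpoints linearly. GI50 marks 50% less growth. TGI marks complete inhibition of growth.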

Columns and labels:
Assay in all cases: inhibition of tumour cell growth, NCI panel, 48 h
A498 renal = system: A498 renal
DMS 114 small cell lung = system: DMS 114 small cell lung
HOP-18 NSCLC = system: HOP-18 NSCLC
HOP-92 NSCLC = system: HOP-92 NSCLC
K-562 leukemia = system: K-562 leukemia
LOX IMVI melanoma = system: LOX IMVI melanoma
OVCAR-4 ovarian = system: OVCAR-4 ovarian
SF-268 CNS = system: SF-268 CNS
SN12C renal = system: SN12C renal
XF 498 CNS = system: XF 498 CNS
SK-MEL-2 melanoma = system: SK-MEL-2 melanoma

SMILES	TGI (A498 renal) [µM]	TGI (DMS 114 small cell lung) [µM]	TGI (HOP-18 NSCLC) [µM]	TGI (HOP-92 NSCLC) [µM]	TGI (K-562 leukemia) [µM]	TGI (LOX IMVI melanoma) [µM]	TGI (OVCAR-4 ovarian) [µM]	TGI (SF-268 CNS) [µM]	TGI (SN12C renal) [µM]	TGI (XF 498 CNS) [µM]	TGI (SK-MEL-2 melanoma) [µM]	GI50 (A498 renal) [µM]	GI50 (DMS 114 small cell lung) [µM]	GI50 (K-562 leukemia) [µM]	GI50 (LOX IMVI melanoma) [µM]	GI50 (OVCAR-4 ovarian) [µM]	GI50 (SF-268 CNS) [µM]	GI50 (SK-MEL-2 melanoma) [µM]	GI50 (SN12C renal) [µM]	GI50 (HOP-92 NSCLC) [µM]
COC(=O)C1C(=O)O[C@@H](c2ccc(OC)cc2)C1C(=O)OC (stereo not given in full)	> 100	> 100	> 100	> 100	> 100	> 100	> 100	> 100	> 100	> 100										
COc1ccccc1/C=C1\CCC(CN(C)C)C1=O (stereo not given)	34.1	7.58	> 53.1	15.9	11.3	4.67	19.6	29.7	13.3	32.6	24.4									
CCCCCCCCC(=O)CCCCCCCCC(=O)O	47.8	64.4	49.4	35.2	46.6	30.2	> 100	> 100	76.2	> 100	> 100									
NC1=NN(c2ccccc2)C(=O)C1C(=O)C(=O)NC1C2CC3CC(C2)CC1C3 (stereo not given)		> 100	> 100	> 100	> 100	> 100	> 100	> 100	> 100		> 100									
CCC[CH2][Sn]([CH2]CCC)([O]C(=O)c1cc(OC)c(OC)c(OC)c1)[O]C(=O)c1cc(OC)c(OC)c(OC)c1	3.02	1.54			1.99	2.77	2.9	2.48	3.68		2.31	1.17	0.404	0.29	0.695	1.48	1.21	1.1	1.51	
CC(=O)NC(ON1C(=O)COc2ccccc21)C(Cl)(Cl)Cl (stereo not given)				> 100	> 100	> 100	> 100	> 100	> 100	> 100	> 100									
CC(=O)c1cc2c3c(c1)c1cc4c(cc1c(=O)n3CC2)OCO4		> 100	76.6	> 100	> 100	> 100	> 100		> 100	> 100	> 100									
COc1cc2c3c(n(CCCN=[N+]=[N-])c(=O)c2cc1OC)-c1ccc(N)cc1C3=O	0.484			0.86		0.466	2.59	> 32.4	> 27.1		1.55	0.0759		0.177	0.0923	0.608	0.34	0.622	0.282	0.163
Clc1cccc(Cn2cc(Cc3cn(Cc4cccc(Cl)c4)c4ccccc34)c3ccccc32)c1	> 100			> 100	> 100	> 100	> 100	> 100	> 100		> 100	> 100		> 100	33.3	> 100	> 100	> 100	> 100	22.5
O=C(Nc1cccnc1)c1cccs1	> 100			> 100	> 100	> 100	> 100	> 100	> 100		> 100	> 100		0.728	> 100	1.11	4.54	> 100	25.8	> 100
O=S1Cc2ccccc2CS1 (stereo not given)	> 100		> 100	34.1	49.9	21.3	30.6	> 100	28.3	32.6										
